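Tested at 5 concentrations; 48 h exposure; 96-well plates; endpoints linearly interpolated, else capped at highest concentration. Definition used: TGI = concentration required for complete inhibition of growth.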

Among the test systems are MCF7 breast; HCT-116 colon; K-562 leukemia; HOP-92 NSCLC; UACC-257 melanoma; HOP-62 NSCLC; A498 renal; CCRF-CEM leukemia; M14 melanoma.
Assay in all cases: inhibition of tumour cell growth, NCI panel, 48 h

With `CC(C)NC(=O)OCc1c(CO)c2c(n1C)-c1ccccc1CC2`, the TGI in the assay on MCF7 breast was greater than 100 µM; in the assay with HCT-116 colon it was 34 µM; in the assay on K-562 leukemia, 46 µM; in the assay with HOP-92 NSCLC it was 53.7 µM; in the assay on UACC-257 melanoma, greater than 100 µM; in the assay on HOP-62 NSCLC, greater than 93.3 µM. Further, the TGI in the assay with A498 renal is greater than 100 µM; with CCRF-CEM leukemia, 45.2 µM.
Turning to `O=C(CN1CCOCC1)c1ccc2c(c1)oc(=O)n2CCN1CCOCC1`, the TGI in the assay with MCF7 breast, in the assay on HCT-116 colon, in the assay with M14 melanoma, in the assay on K-562 leukemia, with HOP-62 NSCLC and with A498 renal was greater than 100 µM in each case. This compound showed a TGI in the assay with CCRF-CEM leukemia greater than 100 µM.
For `COC(=O)c1ccc(N=NN(C)COc2ccc(Br)cc2)cc1`, the TGI in the assay on MCF7 breast, with HCT-116 colon, with K-562 leukemia, in the assay on HOP-92 NSCLC, in the assay on UACC-257 melanoma and in the assay with HOP-62 NSCLC was greater than 100 µM throughout. The TGI with A498 renal and in the assay on CCRF-CEM leukemia was greater than 100 µM each time.
For the compound `Cc1ccc(/C(O)=C/C(=O)C(=O)NC23CC4CC(CC(C4)C2)C3)cc1`, the TGI in the assay with MCF7 breast, in the assay with M14 melanoma, in the assay on K-562 leukemia, with HOP-92 NSCLC, with UACC-257 melanoma and in the assay with HOP-62 NSCLC was greater than 10 µM each time. In the assay on CCRF-CEM leukemia, the TGI was greater than 10 µM.
Consider `CC(=O)OCC1OC(n2c(-c3ccccc3)c(C(C)=O)c(-c3cccc4ccccc34)c(C#N)c2=S)C(OC(C)=O)C(OC(C)=O)C1OC(C)=O` (stereo unspecified), for which the TGI in the assay with MCF7 breast, in the assay with HCT-116 colon, with M14 melanoma, in the assay on K-562 leukemia, in the assay with UACC-257 melanoma and with HOP-62 NSCLC was greater than 100 µM each time. The TGI in the assay on A498 renal and in the assay on CCRF-CEM leukemia was greater than 100 µM throughout.
For `CC(C)N=C(N)NC#N`, the TGI in the assay with HCT-116 colon, in the assay with M14 melanoma, in the assay with K-562 leukemia, in the assay on UACC-257 melanoma, in the assay with HOP-62 NSCLC and in the assay with A498 renal was greater than 100 µM in each case. The TGI in the assay with CCRF-CEM leukemia is greater than 100 µM.
Turning to `O=C1c2ccccc2-c2nnc3c(c21)-c1ccccc1C3`, the TGI with MCF7 breast, with HCT-116 colon, in the assay with M14 melanoma, in the assay with HOP-92 NSCLC, in the assay on UACC-257 melanoma and in the assay with CCRF-CEM leukemia was greater than 100 µM in each case.
For `O=C1C(=O)N(c2cccc(C(F)(F)F)c2)C(=S)N1c1ccccc1`, the TGI in the assay on HCT-116 colon was greater than 100 µM; in the assay with K-562 leukemia it was greater than 100 µM; in the assay with HOP-92 NSCLC it was 50.7 µM; in the assay on UACC-257 melanoma, 71.8 µM; in the assay on HOP-62 NSCLC it was greater than 100 µM; with A498 renal it was 59.5 µM. The TGI with CCRF-CEM leukemia is greater than 100 µM.
As to `CC1=C(O)C(=O)C2C(=O)C1C1Cc3ccccc3C21` (stereo unspecified), the TGI with M14 melanoma, with K-562 leukemia, in the assay with HOP-92 NSCLC, with HOP-62 NSCLC, in the assay on A498 renal and in the assay with CCRF-CEM leukemia was greater than 100 µM each time.
Take `COc1ccccc1-c1cc(=O)c2cc3c(cc2[nH]1)OCO3`: the TGI in the assay with HCT-116 colon was greater than 100 µM; with K-562 leukemia, greater than 100 µM; in the assay with UACC-257 melanoma, greater than 100 µM; in the assay with HOP-62 NSCLC it was greater than 100 µM; in the assay on A498 renal it was 62.4 µM; with CCRF-CEM leukemia it was greater than 100 µM.
As to `COc1ccc(/C(Cl)=C(\C=N/O)c2ccc(OC)c(OC)c2)cc1OC`, the TGI in the assay on HCT-116 colon, with M14 melanoma, in the assay with K-562 leukemia, in the assay with HOP-92 NSCLC, in the assay on UACC-257 melanoma and in the assay with HOP-62 NSCLC was greater than 100 µM each time. Moreover, the TGI with A498 renal and in the assay on CCRF-CEM leukemia was greater than 100 µM throughout.
Turning to `Cc1cc(/C=C/c2cc[n+](C)c3ccccc23)c(O)c2ncccc12`, the TGI in the assay with HCT-116 colon amounted to 7.34 µM; in the assay on M14 melanoma, 4.51 µM; in the assay with K-562 leukemia, 13.7 µM; with HOP-92 NSCLC it was 17 µM; with UACC-257 melanoma, 13.5 µM; with HOP-62 NSCLC it was 15 µM. Also, the results for the TGI in the assay on A498 renal and with CCRF-CEM leukemia were 15.5 µM and greater than 37.7 µM, respectively.
As to `Cc1c(N2CCN(C)CC2)nc2ccc(Cl)cc2c1-c1ccccc1`, the TGI in the assay on HCT-116 colon was found to be 40 µM; in the assay with M14 melanoma, 34.9 µM; in the assay with K-562 leukemia, 35.7 µM; in the assay on UACC-257 melanoma, 33 µM; with HOP-62 NSCLC, 36.6 µM; with A498 renal, 25.3 µM. Moreover, the TGI with CCRF-CEM leukemia worked out at 42.2 µM.
Turning to `COC1C(O)C(n2ncc3c(SC)nc(SC)nc32)OC1C(O)CO` (stereo unspecified), the TGI was greater than 100 µM in the assay on MCF7 breast; greater than 100 µM with HCT-116 colon; greater than 100 µM with K-562 leukemia; greater than 100 µM in the assay with HOP-92 NSCLC; greater than 55.8 µM with UACC-257 melanoma; greater than 100 µM in the assay with HOP-62 NSCLC. Also, the TGI in the assay with A498 renal and in the assay on CCRF-CEM leukemia was greater than 100 µM throughout.

The record behind these values is PubChem BioAssay (NCI).
